Laboratory results: patent publication US11384055B2 (BIOMARIN PHARMACEUTICAL INC., priority 2017, dated 2022)

Target: T1, Human GO (Homo sapiens, UniProt Q9UJM8)
T1 construct: purchased Novus Biologicals NBP1-72412
T1 sequence (Q9UJM8 1-370): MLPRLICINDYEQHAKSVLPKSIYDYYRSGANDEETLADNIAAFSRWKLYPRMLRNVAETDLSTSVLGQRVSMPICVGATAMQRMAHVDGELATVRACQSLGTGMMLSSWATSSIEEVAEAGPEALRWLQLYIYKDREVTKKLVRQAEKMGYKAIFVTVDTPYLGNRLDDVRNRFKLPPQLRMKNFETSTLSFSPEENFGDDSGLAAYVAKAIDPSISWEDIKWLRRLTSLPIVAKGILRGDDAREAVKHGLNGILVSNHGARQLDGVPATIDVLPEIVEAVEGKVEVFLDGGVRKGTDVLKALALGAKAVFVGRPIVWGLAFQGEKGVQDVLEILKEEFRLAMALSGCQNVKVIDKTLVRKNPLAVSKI
Assay: GO enzymatic assay (coupled fluorescence/HRP assay, glycolate substrate)
Format: biochemical
Details: Table 2; read-out: Range (range of IC50 values calculated from the enzymatic assays)
How it was run: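 Coupled HRP/fluorescence read-out of glycolate oxidation by human GO in 50 mM potassium phosphate buffer (pH 7). Inhibitors added across a concentration range.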

Compared with `O=C(O)c1[nH]nnc1-c1ccc(Cl)cn1` [Compound 208, 4-(5-chloropyridin-2-yl)-1H-1,2,3-triazole-5-carboxylic acid 2,2,2-trifluoroacetate], `O=C(O)c1[nH]nnc1-c1cnc2cc(Cl)ccc2c1` [Compound 216, 4-(7-chloroquinolin-3-yl)-1H-1,2,3-triazole-5-carboxylic acid 2,2,2-trifluoroacetate] is lower in IC50: 0.1 to 1 µM for the first, under 0.1 µM for the second.

First: CC(=O)NCCOc1ccc(-c2nn[nH]c2C(=O)O)cc1 [Compound 209, 4-(4-(2-acetamidoethoxy)phenyl)-1H-1,2,3-triazole-5-carboxylic acid]
Second: O=C(O)c1[nH]nnc1-c1ccc(Cl)c(OCC2CC2)c1 [Compound 218, 4-(4-chloro-3-(cyclopropylmethoxy)phenyl)-1H-1,2,3-triazole-5-carboxylic acid]
The IC50 of the first is higher: 1 to 10 µM for the first, 0.1 to 1 µM for the second.

Compared with `O=C(O)c1[nH]nnc1-c1cc2ccc(F)cc2cn1` [Compound 210, 4-(7-fluoroisoquinolin-3-yl)-1H-1,2,3-triazole-5-carboxylic acid 2,2,2-trifluoroacetate], `O=C(O)c1[nH]nnc1-c1cc2cc(F)ccc2cn1` [Compound 213, 4-(6-fluoroisoquinolin-3-yl)-1H-1,2,3-triazole-5-carboxylic acid 2,2,2-trifluoroacetate] is higher in IC50: 0.1 to 1 µM for the first, 1 to 10 µM for the second.

Compared with `O=C(O)c1[nH]nnc1-c1cc2cc(OC(F)(F)F)ccc2cn1` [Compound 211, 4-(6-(trifluoromethoxy)isoquinolin-3-yl)-1H-1,2,3-triazole-carboxylic acid], `O=C(O)c1[nH]nnc1-c1cc2ccc(OC(F)(F)F)cc2cn1` [Compound 214, 4-(7-(trifluoromethoxy)isoquinolin-3-yl)-1H-1,2,3-triazole-5-carboxylic acid] is lower in IC50: 1 to 10 µM for the first, 0.1 to 1 µM for the second.

Compared with `O=C(O)c1[nH]nnc1-c1ccc2c(n1)CCCC2` [Compound 212, 4-(5,6,7,8-tetrahydroquinolin-2-yl)-1H-1,2,3-triazole-5-carboxylic acid], `O=C(O)c1[nH]nnc1Oc1ccc(-c2cccc3c2CCCC3)cc1` [Compound 223, 4-(4-(5,6,7,8-tetrahydronaphthalen-1-yl)phenoxy)-1H-1,2,3-triazole-5-carboxylic acid 2,2,2-trifluoroacetate] is lower in IC50: 1 to 10 µM for the first, under 0.1 µM for the second. The second is the more potent here.

First: O=C(O)c1[nH]nnc1-c1cc2ccc(C(F)(F)F)cc2cn1 [Compound 215, 4-(7-(trifluoromethyl)isoquinolin-3-yl)-1H-1,2,3-triazole-5-carboxylic acid]
Second: O=C(O)c1[nH]nnc1-c1cc(OCC2CC2)ccc1Cl [Compound 219, 4-(2-chloro-5-(cyclopropylmethoxy)phenyl)-1H-1,2,3-triazole-5-carboxylic acid]
The IC50 of the first is lower: 0.1 to 1 µM for the first, 1 to 10 µM for the second.

`O=C(O)c1[nH]nnc1-c1cc(Cl)cc(OCC2CC2)c1` [Compound 217, 4-(3-chloro-5-(cyclopropylmethoxy)phenyl)-1H-1,2,3-triazole-5-carboxylic acid 2,2,2-trifluoroacetate] and `CN1CCCc2cc(-c3ccc(Oc4nn[nH]c4C(=O)O)cc3)ccc21` [Compound 222, 4-(4-(1-methyl-1,2,3,4-tetrahydroquinolin-6-yl)phenoxy)-1H-1,2,3-triazole-5-carboxylic acid] cannot be ordered by IC50: under 0.1 µM for the first, under 0.1 µM for the second.

`O=C(O)c1[nH]nnc1Oc1ccc(-c2cccc(N3CCCCC3)c2)cc1` [Compound 220, 4-((3′-(piperidin-1-yl)-[1,1′-biphenyl]-4-yl)oxy)-1H-1,2,3-triazole-5-carboxylic acid 2,2,2-trifluoroacetate] and `O=C(O)c1[nH]nnc1Oc1ccc(-c2ccc(N3CCCCC3)cc2)cc1` [Compound 221, 4-((4′-(piperidin-1-yl)-[1,1′-biphenyl]-4-yl)oxy)-1H-1,2,3-triazole-5-carboxylic acid 2,2,2-trifluoroacetate] cannot be ordered by IC50: under 0.1 µM for the first, under 0.1 µM for the second.

Compound `O=C(O)c1[nH]nnc1Oc1ccc(-c2cccc(CN3CCCCC3=O)c2)cc1` [Compound 224, 4-((3′-((2-oxopiperidin-1-yl)methyl)-[1,1′-biphenyl]-4-yl)oxy)-1H-1,2,3-triazole-5-carboxylic acid] has an IC50 of under 0.1 µM.
